Among the data in US20190119200A1, “TERTIARY AMIDES AND METHOD OF USE” (AbbVie Inc., priority 2016, published 2019) are IC50 and Emax values, retold here.

Assay [1] deals with T1, LPAR1 (Homo sapiens, UniProt Q92633).
T1 construct: host or cells: U2OS
In words: LPAR1 FLIPR Assay. Type of assay: cell-based. As to conditions: U2OS cells stably expressing LPAR1, LPA (EC80), Calcium 6 FLIPR dye; for Emax: read-out: Maximum Inhibition. In short, it runs like this: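 Calcium flux read-out (515-575 nm, FLIPR) in LPAR1-expressing U2OS cells after LPA challenge at EC80, given 3 min after compound addition; cells carried Calcium 6 dye loaded 2 h at 37° C. Eleven-point 3-fold dilutions were fitted with a four-parameter Hill equation for IC50.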

Assay [2] deals with LPA-induced MCP-1 in NRK-49F cells. In words: LPA-induced MCP-1 AlphaLISA assay. Format: cell-based. Particulars: Rattus norvegicus, final LPA 10 μM, 7 hours; for Emax: read-out: Maximum Inhibition. The gist of the method: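 NRK-49F rat fibroblasts, serum-starved overnight, pretreated with compound for 30 min at 37 °C (1% DMSO final), then stimulated with 10 μM LPA final. MCP-1 in the supernatant was measured by mouse/rat CCL2 AlphaLISA. IC50 values came from four-parameter logistic fits of the ratio data.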
For orientation: Alpha assays give light when donor and acceptor beads are brought close together.

T1 sequence (Q92633 whole entry): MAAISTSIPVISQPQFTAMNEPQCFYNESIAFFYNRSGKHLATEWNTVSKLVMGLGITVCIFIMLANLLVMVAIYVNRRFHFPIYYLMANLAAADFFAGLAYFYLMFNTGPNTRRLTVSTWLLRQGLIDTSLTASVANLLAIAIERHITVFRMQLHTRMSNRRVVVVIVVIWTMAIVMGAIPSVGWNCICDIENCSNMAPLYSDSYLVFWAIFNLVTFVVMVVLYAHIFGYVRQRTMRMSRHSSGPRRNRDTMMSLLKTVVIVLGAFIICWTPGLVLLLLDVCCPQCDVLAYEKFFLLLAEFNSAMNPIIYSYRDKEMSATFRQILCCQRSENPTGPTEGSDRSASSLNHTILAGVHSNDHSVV

A word on the IC50: it is the concentration needed to halve the response being measured. `COc1cc(C(=O)N(CCCc2ccccc2Cl)CCSCC(=O)O)cc(OC)c1C` [Example 112, [(2-{[3-(2-chlorophenyl)propyl](3,5-dimethoxy-4-methylbenzoyl)amino}ethyl)sulfanyl]acetic Acid]: in assay [1], the IC50 turned out to be 315 nM and the Emax worked out at 77%. Besides, in assay [2], the IC50 was 0.996 µM and the Emax stood at 78%.
The matching figures for `COc1cccc(C2(C(=O)N(CCCCC(=O)O)CCCc3ccccc3)CC2)c1` [Example 82, 5-{[1-(3-methoxyphenyl)cyclopropane-1-carbonyl](3-phenylpropyl)amino}pentanoic Acid]: greater than 30000 nM, 39%, greater than 10 µM and 2%.
Consider `COc1cc(C(=O)N(CCCc2cc(F)cc(F)c2)CCSCC(=O)O)cc(OC)c1C` [Example 125, [(2-{[3-(3,5-difluorophenyl)propyl](3,5-dimethoxy-4-methylbenzoyl)amino}ethyl)sulfanyl]acetic Acid], for which, in assay [1], the IC50 is greater than 10000 nM and the Emax was determined as 32%. In assay [2], the IC50 was greater than 10 µM and the Emax is 53%.
Consider `COc1ccc(C2(C(=O)N(CCCc3ccccc3)CCOCC(=O)O)CC2)cc1` [Example 87, (2-{[1-(4-methoxyphenyl)cyclopropane-1-carbonyl](3-phenylpropyl)amino}ethoxy)acetic Acid], for which the IC50 amounted to 81 nM in assay [1] and 5.44 µM in assay [2]. The Emax in assay [1] stood at 71%; in assay [2], 62%.
With `COc1ccc(C2(C(=O)N(CCCCC(=O)O)CCCc3ccccc3)CCC2)cc1` [Example 86, 5-{[1-(4-methoxyphenyl)cyclobutane-1-carbonyl](3-phenylpropyl)amino}pentanoic Acid], the results for the IC50 in assay [1] and in assay [2] were 44 nM and 2.98 µM, respectively. Moreover, the values for the Emax in assay [1] and in assay [2] were 88% and 74%, respectively.
In the same order, the values of `COc1cc(OC)c([N+](=O)[O-])c(C(=O)N(CCCCC(=O)O)CCCc2ccccc2)c1` [Example 19, 5-[(3,5-dimethoxy-2-nitrobenzoyl)(3-phenylpropyl)amino]pentanoic Acid] are 71 nM, 0.783 µM, 98% and 84%.
Take `Cc1ncc(Cl)c(C(=O)N(CCCCC(=O)O)CCCc2ccccc2)n1` [Example 167, 5-[(5-chloro-2-methylpyrimidine-4-carbonyl)(3-phenylpropyl)amino]pentanoic Acid]: in assay [1], the IC50 was 635 nM and the Emax stood at 58%. In assay [2], the IC50 is greater than 10 µM and the Emax is 25%.
The matching figures for `COc1cc(C(=O)N(CCCCC(=O)O)Cc2ccccc2)cc(OC)c1C` [Example 94, 5-[benzyl(3,5-dimethoxy-4-methylbenzoyl)amino]pentanoic Acid]: greater than 30000 nM, 2%, greater than 10 µM and 13%.
On to `COc1cc(OC)cc(C(=O)N(CCCCC(=O)O)CCCc2cc(F)cc(F)c2)c1` [Example 136, 5-{[3-(3,5-difluorophenyl)propyl](3,5-dimethoxybenzoyl)amino}pentanoic Acid], for which, in assay [1], the IC50 is greater than 10000 nM and the Emax was 15%. For the same compound, in assay [2], the IC50 is greater than 10 µM and the Emax amounted to 47%.
In the same order, the values of `COc1cc(OC)cc(C(=O)N(CCCCC(=O)O)CCCc2ccc(F)cc2)c1` [Example 148, 5-{(3,5-dimethoxybenzoyl)[3-(4-fluorophenyl)propyl]amino}pentanoic Acid] are greater than 10000 nM, 47%, greater than 10 µM and 40%.
As for `COc1cc(C(=O)N(CCCCc2nnn[nH]2)CCCc2ccccc2)cc(OC)c1C` [Example 166, 3,5-dimethoxy-4-methyl-N-(3-phenylpropyl)-N-[4-(1H-tetrazol-5-yl)butyl]benzamide], the IC50 in assay [1] was 42 nM; in assay [2], 1.06 µM. The Emax in assay [1] came out at 96%; in assay [2], 80%.
